# According to PubChem BioAssay (NCI):
#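 In this assay, cells in 96-well plates receive the compound at five concentrations for 48 hours. Endpoints are linearly interpolated between the surrounding concentrations. The concentration for full growth arrest is given as TGI.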
# Key:
# Assay in all cases: NCI anticancer screen, dose series, 48 h
# [1] = system: IGROV1 ovarian
# [2] = system: HCT-15 colon
# [3] = system: HOP-62 NSCLC
# [4] = system: NCI-H460 lung
# [5] = system: 786-0 renal
# [6] = system: M14 melanoma
# [7] = system: LOX IMVI melanoma
# [8] = system: DU-145 prostate
# [9] = system: CAKI-1 renal
# [10] = system: NCI-H522 lung
# [11] = system: MCF7 breast
# [12] = system: HS 578T breast
# [13] = system: COLO 205 colon
# [14] = system: NCI/ADR-RES ovarian
# [15] = system: HCT-116 colon
# [16] = system: HCC-2998 colon
# [17] = system: TK-10 renal
# [18] = system: SF-539 CNS
# [19] = system: A498 renal
# [20] = system: A549 NSCLC
# [21] = system: SK-MEL-5 melanoma
# [22] = system: KM12 colon
# [23] = system: HT29 colon
# [24] = system: MDA-N
# [25] = system: UO-31 renal
# [26] = system: U251 CNS
# [27] = system: ACHN renal
# [28] = system: SN12C renal
# [29] = system: UACC-257 melanoma
# [30] = system: MDA-MB-435
# [31] = system: SK-OV-3 ovarian
# [32] = system: OVCAR-4 ovarian
# [33] = system: SF-268 CNS
# [34] = system: K-562 leukemia
# [35] = system: RXF 393 renal
# [36] = system: HL-60(TB) leukemia
# [37] = system: SW-620 colon
# [38] = system: BT-549 breast
# [39] = system: MALME-3M melanoma
# [40] = system: OVCAR-3 ovarian
# [41] = system: OVCAR-8 ovarian
# [42] = system: NCI-H23 lung
# [43] = system: UACC-62 melanoma
# [44] = system: SR leukemia
# [45] = system: SK-MEL-2 melanoma
# [46] = system: HOP-92 NSCLC
# [47] = system: SNB-75 CNS
# [48] = system: SNB-19 CNS
# [49] = system: MOLT-4 leukemia
# [50] = system: MDA-MB-231 breast
# [51] = system: CCRF-CEM leukemia
# [52] = system: SF-295 CNS
# [53] = system: OVCAR-5 ovarian
# [54] = system: SK-MEL-28 melanoma
# [55] = system: NCI-H226 lung
# [56] = system: PC-3 prostate
# [57] = system: EKVX NSCLC
# [58] = system: RPMI-8226 leukemia
# [59] = system: T-47D breast
smiles,measurement,setting,value
CC(C)(Br)C(=O)N1CCN(C(c2ccccc2)c2ccccc2)CC1,TGI,[1],> 100 µM
same,TGI,[2],> 100 µM
same,TGI,[3],> 100 µM
same,TGI,[4],> 100 µM
same,TGI,[5],> 100 µM
same,TGI,[6],> 100 µM
same,TGI,[7],> 100 µM
same,TGI,[8],> 100 µM
same,TGI,[9],> 100 µM
same,TGI,[10],> 100 µM
same,TGI,[11],81.8 µM
same,TGI,[12],55.5 µM
same,TGI,[13],> 100 µM
same,TGI,[14],> 100 µM
same,TGI,[15],> 100 µM
same,TGI,[16],> 100 µM
same,TGI,[17],> 100 µM
same,TGI,[18],> 100 µM
same,TGI,[19],> 100 µM
same,TGI,[20],> 100 µM
same,TGI,[21],> 100 µM
same,TGI,[22],31.8 µM
same,TGI,[23],> 100 µM
same,TGI,[24],> 100 µM
same,TGI,[25],> 100 µM
same,TGI,[26],> 100 µM
same,TGI,[27],> 100 µM
same,TGI,[28],> 100 µM
same,TGI,[29],> 100 µM
same,TGI,[30],> 100 µM
same,TGI,[31],> 100 µM
same,TGI,[32],> 100 µM
same,TGI,[33],> 100 µM
same,TGI,[34],> 100 µM
same,TGI,[35],81.2 µM
same,TGI,[36],41.9 µM
same,TGI,[37],> 100 µM
same,TGI,[38],> 100 µM
same,TGI,[39],> 100 µM
same,TGI,[40],36.8 µM
same,TGI,[41],> 100 µM
same,TGI,[42],> 100 µM
same,TGI,[43],> 100 µM
same,TGI,[44],> 100 µM
same,TGI,[45],> 100 µM
same,TGI,[46],> 100 µM
same,TGI,[47],> 100 µM
same,TGI,[48],> 100 µM
same,TGI,[49],> 100 µM
same,TGI,[50],> 100 µM
same,TGI,[51],> 100 µM
same,TGI,[52],> 100 µM
same,TGI,[53],> 100 µM
same,TGI,[54],> 100 µM
same,TGI,[55],> 100 µM
same,TGI,[56],> 100 µM
same,TGI,[57],> 100 µM
C=CCn1c(-c2ccc([N+](=O)[O-])cc2)cs/c1=N\C(P(=O)(O)O)P(=O)(O)O,TGI,[1],> 100 µM
same,TGI,[2],> 100 µM
same,TGI,[3],> 100 µM
same,TGI,[4],> 100 µM
same,TGI,[5],> 100 µM
same,TGI,[6],> 100 µM
same,TGI,[7],> 100 µM
same,TGI,[58],> 100 µM
same,TGI,[8],> 100 µM
same,TGI,[9],> 100 µM
same,TGI,[10],> 100 µM
same,TGI,[11],> 100 µM
same,TGI,[12],> 100 µM
same,TGI,[13],> 100 µM
same,TGI,[14],> 100 µM
same,TGI,[15],> 100 µM
same,TGI,[16],> 100 µM
same,TGI,[17],> 100 µM
same,TGI,[18],> 100 µM
same,TGI,[19],> 100 µM
same,TGI,[20],> 100 µM
same,TGI,[21],> 100 µM
same,TGI,[22],> 100 µM
same,TGI,[23],> 100 µM
same,TGI,[24],> 100 µM
same,TGI,[25],> 100 µM
same,TGI,[26],> 100 µM
same,TGI,[27],> 100 µM
same,TGI,[29],> 100 µM
same,TGI,[30],> 100 µM
same,TGI,[31],> 100 µM
same,TGI,[33],> 100 µM
same,TGI,[34],> 100 µM
same,TGI,[35],> 100 µM
same,TGI,[36],90.6 µM
same,TGI,[37],> 100 µM
same,TGI,[38],> 100 µM
same,TGI,[39],> 100 µM
same,TGI,[40],> 100 µM
same,TGI,[41],> 100 µM
same,TGI,[42],> 100 µM
same,TGI,[43],> 100 µM
same,TGI,[44],> 100 µM
same,TGI,[46],> 100 µM
same,TGI,[47],> 100 µM
same,TGI,[48],> 100 µM
same,TGI,[49],> 100 µM
same,TGI,[50],> 100 µM
same,TGI,[51],> 100 µM
same,TGI,[52],> 100 µM
same,TGI,[53],> 100 µM
same,TGI,[54],> 100 µM
same,TGI,[55],> 100 µM
same,TGI,[56],> 100 µM
same,TGI,[57],> 100 µM
c1ccc(-c2nnn3c2NC2=C(CCCC2)C3c2ccccc2)cc1 (configuration not stated),TGI,[1],40.2 µM
same,TGI,[2],3.04 µM
same,TGI,[3],39.2 µM
same,TGI,[4],52.8 µM
same,TGI,[5],36.4 µM
same,TGI,[6],35.5 µM
same,TGI,[7],27 µM
same,TGI,[58],31.9 µM
same,TGI,[8],33.3 µM
same,TGI,[9],38.8 µM
same,TGI,[10],19.9 µM
same,TGI,[11],51.9 µM
same,TGI,[12],81.7 µM
same,TGI,[13],30.2 µM
same,TGI,[14],52.4 µM
same,TGI,[15],24.3 µM
same,TGI,[18],35.8 µM
same,TGI,[20],32.8 µM
same,TGI,[21],30.1 µM
same,TGI,[22],31.2 µM
same,TGI,[23],28.4 µM
same,TGI,[24],32.3 µM
same,TGI,[25],34.1 µM
same,TGI,[26],26 µM
same,TGI,[27],3.09 µM
same,TGI,[28],51.1 µM
same,TGI,[29],52.2 µM
same,TGI,[30],20.8 µM
same,TGI,[31],50.7 µM
same,TGI,[59],49.9 µM
same,TGI,[33],48.9 µM
same,TGI,[34],29.2 µM
same,TGI,[35],34.9 µM
same,TGI,[36],37.2 µM
same,TGI,[37],28.9 µM
same,TGI,[40],37.7 µM
same,TGI,[41],5.44 µM
same,TGI,[42],69.4 µM
same,TGI,[43],33.7 µM
same,TGI,[44],31.1 µM
same,TGI,[45],36 µM
same,TGI,[48],> 100 µM
same,TGI,[49],24.7 µM
same,TGI,[50],64.6 µM
same,TGI,[51],31.1 µM
same,TGI,[52],49.7 µM
same,TGI,[53],36.9 µM
same,TGI,[55],> 100 µM
same,TGI,[56],34.3 µM
COc1ccccc1NC(=S)NN=C(C)c1cccc(C(C)=NNC(=S)Nc2ccccc2OC)n1,TGI,[1],> 100 µM
same,TGI,[2],> 100 µM
same,TGI,[3],> 100 µM
same,TGI,[4],> 100 µM
same,TGI,[5],37.7 µM
same,TGI,[6],25.8 µM
same,TGI,[7],> 100 µM
same,TGI,[58],> 100 µM
same,TGI,[8],> 100 µM
same,TGI,[9],> 100 µM
same,TGI,[10],97.3 µM
same,TGI,[11],> 100 µM
same,TGI,[13],> 100 µM
same,TGI,[14],34.7 µM
same,TGI,[15],11.1 µM
same,TGI,[16],> 100 µM
same,TGI,[18],62.4 µM
same,TGI,[19],93 µM
same,TGI,[20],> 100 µM
same,TGI,[21],32.7 µM
same,TGI,[22],> 100 µM
same,TGI,[23],> 100 µM
same,TGI,[24],> 100 µM
same,TGI,[25],> 100 µM
same,TGI,[26],> 100 µM
same,TGI,[27],64.3 µM
same,TGI,[28],> 100 µM
same,TGI,[29],93.9 µM
same,TGI,[30],> 100 µM
same,TGI,[31],> 100 µM
same,TGI,[59],> 100 µM
same,TGI,[32],74.3 µM
same,TGI,[33],> 100 µM
same,TGI,[34],> 100 µM
same,TGI,[35],47.6 µM
same,TGI,[36],99.5 µM
same,TGI,[37],> 100 µM
same,TGI,[39],40.6 µM
same,TGI,[40],> 100 µM
same,TGI,[41],> 100 µM
same,TGI,[42],> 100 µM
same,TGI,[43],> 100 µM
same,TGI,[44],17.2 µM
same,TGI,[45],> 100 µM
same,TGI,[46],97.7 µM
same,TGI,[47],> 100 µM
same,TGI,[48],> 100 µM
same,TGI,[49],74.5 µM
same,TGI,[50],68.9 µM
same,TGI,[51],> 100 µM
same,TGI,[52],> 100 µM
same,TGI,[53],> 100 µM
same,TGI,[54],> 100 µM
same,TGI,[55],> 100 µM
same,TGI,[56],> 100 µM
same,TGI,[57],> 100 µM
